Source: patent US20060205669A1, “G-type peptides and other agents to ameliorate atherosclerosis and other pathologies” (The Regents of the University of California, priority 2004, published 2006)
Entries after “also recorded” stand apart in the source; their conditions may differ.

Key:
human volunteers = conditions: infusion into humans; cited from earlier work
human LDL = human LDL treated in vitro; cited from earlier work
mice = conditions: injection into mice; cited from earlier work
[1] = system: mice fed an atherogenic diet; conditions: 20 μg daily injected; cited from earlier work
ApoE null mice [2] = experiment: Protection against LDL-induced monocyte chemotactic activity by HDL from apo E null mice given oral peptides; format: in vivo; conditions: peptide in drinking water (D-4F 5-50, D-J336 20-50 μg per ml), 24 hrs, murine HDL at 100 μg cholesterol/ml
Method: FIG. 4 illustrates the effect of oral apoA-1 peptide mimetic and apoJ peptide on HDL protective capacity. ApoE null mice (4 per group) were provided with D-4F (designated as F) at 50, 30, 20, 10, 5 μg per ml of drinking water or apoJ peptide (designated as J) at 50, 30 or 20 μg per ml of drinking water. After 24 hrs blood was collected, plasma fractionated by FPLC and fractions containing LDL (designated as mLDL for murine LDL) and fractions containing HDL (designated as mHDL) were separately pooled and HDL protective capacity against LDL oxidation as determined by LDL-induced monocyte chemotactic activity was determined. For the assay controls the culture wells received no lipoproteins (no additions), mLDL alone (at 200 μg cholesterol/ml), or mLDL+standard normal human HDL (designated as Cont. h HDL, at 350 μg HDL cholesterol/ml).
For testing the murine HDL, mLDL together with murine HDL (+F mHDL or +J mHDL) were added to artery wall cell cultures. […] The murine HDL was used at 100 μg cholesterol/ml.

ApoE null mice [3] = experiment: Protection against PAPC oxidation by HPODE by HDL from apo E null mice given oral peptides; format: in vivo; conditions: peptide in drinking water, 24 hrs, murine HDL at 100 μg cholesterol/ml
Method: FIG. 6 illustrates the effect of oral apoA-1 peptide mimetic and apoJ peptide on HDL protective capacity. ApoE null mice (4 per group) were provided with D-4F (designated as F) at 50, 30, 20, 10, 5 μg per ml of drinking water or apoJ peptide (D-J336 made from D amino acids and designated as J) at 50, 30 or 20 μg per ml of drinking water. After 24 hrs blood was collected, plasma fractionated by FPLC and fractions containing HDL (designated as mHDL) were pooled and HDL protective capacity against PAPC oxidation as determined by the induction of monocyte chemotactic activity was determined. For the assay controls the culture wells received no lipoproteins (no additions), the phospholipid PAPC at 20 μg/ml+HPODE, at 1.0 μg/ml, or PAPC+BPODE plus standard normal human HDL (at 350 μg HDL cholesterol/ml and designated as +Cont. h HDL).
For testing the murine HDL, PAPC+HPODE together with murine HDL (+F mHDL or +J mHDL) were added to artery wall cell cultures. […] The murine HDL was used at 100 μg cholesterol/ml.

ApoE null mice [4] = experiment: Ability of LDL from apoE null mice given oral peptides to induce monocyte chemotactic activity (LDL susceptibility to oxidation); format: in vivo; conditions: peptide in drinking water, 24 hrs
Method: FIG. 5 illustrates the effect of oral apo A-1 peptide mimetic and apoJ peptide on LDL susceptibility to oxidation. ApoE null mice (4 per group) were provided, in their drinking water, with D-4F (designated as F) at 50, 30, 20, 10, 5 μg per ml of drinking water or the apoJ peptide (D-J336 made from D amino acids and designated as J) at 50, 30 or 20 μg per ml of drinking water. After 24 hrs blood was collected from the mice shown in FIG. 4, plasma fractionated by FPLC and fractions containing LDL (designated as mLDL for murine LDL) were pooled and LDL susceptibility to oxidation as determined by induction of monocyte chemotactic activity was determined. For the assay controls the culture wells received no lipoproteins (no additions), mLDL alone (at 200 μg cholesterol/ml), or mLDL+standard normal human HDL (designated as Cont. h HDL, 350 μg HDL cholesterol).
Murine LDL, mLDL, from mice that received the D-4F (F mLDL) or those that received the apoJ peptide (J mLDL) were added to artery wall cell cultures.

[5] = system: Human aortic endothelial cells; experiment: Prevention of LDL-induced monocyte chemotactic activity by pre-treatment (pre-incubation) of artery wall cells; format: cell-based; conditions: 6 hrs pre-incubation, D-J336 4, 2, 1 μg/ml vs D-4F 100-12.5 μg/ml, FIG. 2
Method: FIG. 2 illustrates a comparison of the effect of D-4F with the effect of D-J336 on the prevention of LDL induced monocyte chemotactic activity in a pre-incubation. Human aortic endothelial cells were pre-incubated with D-J336 or D-4F at 4, 2, and 1 μg/ml for DJ336 or 100, 50, 25, and 12.5 μg/ml for D-4F for 6 hrs. The cultures were then washed and were incubated with medium alone (no addition), or with control human LDL (200 μg protein/ml), or with control human LDL+control human HDL (350 μg HDL protein/ml) as assay controls. The wells that were pre-treated with peptides received the control human LDL at 200 μg protein/ml. Following overnight incubation, the supernatants were assayed for monocyte chemotactic activity.

ApoE null mice [6] = experiment: Plasma paraoxonase (PON1) activity in apoE null mice given oral peptides; format: in vivo; conditions: apoE null mice, 50, 10 or 5 μg per ml drinking water, 24 hrs, FIG. 7
Method: ApoE null mice (4 per group) were provided with D-4F designated as F at 50, 10, 5 or 0 μg per ml of drinking water or apoJ peptide (D-J336 made from D amino acids and designated as J) at 50, 10 or 5 μg per ml of drinking water. After 24 hrs blood was collected and plasma was assayed for PON1 activity.

LDL receptor null mice = experiment: HDL protective capacity in LDL receptor null mice given peptide in drinking water; format: in vivo; conditions: 0.25 or 0.5 mg per ml drinking water, 24 or 48 hrs, mouse HDL at 100 μg cholesterol/ml
Method: D-4F designated as F, or the apoJ peptide made from D amino acids (D-J336, designated as J) was added to the drinking water of LDL receptor null mice (4 per group) at 0.25 or 0.5 mg per ml of drinking water. After 24- or 48-hrs blood was collected from the mice and their HDL was isolated and tested for its ability to protect against LDL-induced monocyte chemotactic activity. Assay controls included culture wells that received no lipoproteins (no addition), or control human LDL alone (designated as LDL, 200 μg cholesterol/ml), or control LDL+control human HDL (designated as +HDL, 350 μg HDL cholesterol). For testing the mouse HDL, the control LDL was added together with mouse HDL (+F HDL or +J HDL) to artery wall cell cultures. The mouse HDL was added at 100 μg cholesterol/ml respectively.

[7] = system: Human aortic endothelial cells; experiment: Prevention of LDL-induced monocyte chemotactic activity in vitro, co-incubation; format: cell-based; conditions: co-incubation with control human LDL 200 μg protein/ml, overnight; FIG. 1
Method: FIG. 1 illustrates a comparison of the effect of D-4F (Circulation 2002; 105:290-292) with the effect of an apoJ peptide made from D amino acids (D-J336, Ac-LLEQLNEQFNWVSRLANLTQGE-NH2, SEQ ID NO:13) on the prevention of LDL-induced monocyte chemotactic activity in vitro in a co-incubation. Human aortic endothelial cells were incubated with medium alone (no addition), with control human LDL (200 μg protein/ml) or control human LDL+control human HDL (350 μg HDL protein/ml). D-J336 or D-4F was added to other wells in a concentration range as indicated plus control human LDL (200 μg protein/ml). Following overnight incubation, the supernatants were assayed for monocyte chemotactic activity.

Obese Zucker Rats [8] = experiment: Balloon injury of the common carotid artery, intimal media ratio; format: in vivo; conditions: 5 mg/kg/daily injected for 1 week before injury, sacrificed two weeks later, FIG. 13
Method: FIG. 13 illustrates the effect of D4F on balloon injury of the carotid artery. Sixteen week old Obese Zucker Rats were injected with D-4F (5 mg/kg/daily) for 1 week at which time they underwent balloon injury of the common carotid artery. Two weeks later the rats were sacrificed and the intimal media ratio determined.
Sixteen week old Obese Zucker Rats were injected with D-4F (5 mg/kg/daily) for 1 week at which time they underwent balloon injury of the common carotid artery. Two weeks later the rats were sacrificed and the intimal media ratio determined.

ApoE null mice [9] = experiment: HDL and pre-beta HDL from apoE null mice fed solution-phase (fragment) synthesized D-4F: inhibition of LDL-induced monocyte chemotaxis; format: in vivo; conditions: apoE null mice fed 5 micrograms solution-phase/fragment-synthesized D-4F, bled at 12 hours; FIG. 15
Excerpt: ApoE null mice were fed 5 micrograms of the D-4F synthesized as described above (Frgmnt) or the mice were given the same amount of mouse chow without D-4F (Chow). Twelve hours after the feeding was started, the mice were bled and their plasma was fractionated on FPLC.

ApoE null mice [10] = experiment: Trabecular bone mineral density in apoE null mice; format: in vivo; conditions: drinking water, 6 weeks
Obese Zucker Rats [11] = experiment: Plasma glucose and lipid hydroperoxides (LOOH) in Obese Zucker Rats; format: in vivo; conditions: Obese Zucker Rats 26 weeks, 5.0 mg/kg/day intraperitoneal, 10 days; FIG. 12
Method: Obese Zucker Rats 26 weeks of age were bled and then treated with daily intraperitoneal injections of D-4F (5.0 mg/kg/day). After 10 days the rats were bled again plasma glucose and lipid hydroperoxides (LOOH) were determined. *p=0.027; ** p=0.0017.

## apo A-I: the major protein of HDL, apolipoprotein A-I
Human volunteers
  LDL isolated after infusion: oxidation by human artery wall cells and induction of monocyte chemotactic activity: resistant to oxidation by human artery wall cells and did not induce monocyte chemotactic activity
Human LDL
  removal of seeding molecules (including HPODE and HPETE) from LDL: removed seeding molecules from the LDL
mice
  LDL isolated after injection: oxidation by human artery wall cells and induction of monocyte chemotactic activity: resistant to oxidation by human artery wall cells and did not induce monocyte chemotactic activity

## Ac-D-W-L-K-A-F-Y-D-K-V-F-E-K-F-K-E-F-F-NH2 (Ac-DWLKAFYDKVFEKFKEFF-NH2) [Peptide 5F]
[1]
  LDL from PBS-injected mice compared with LDL from peptide-injected mice: oxidation and induction of monocyte chemotactic activity: more readily oxidized and more readily induced monocyte chemotactic activity

## Ac-LLEQLNEQFNWVSRLANLTQGE-NH2 [D-J336]
ApoE null mice [2]; FIG. 4
  HDL protective capacity against LDL oxidation (LDL-induced monocyte chemotactic activity): as active as 350 μg/ml of normal human HDL
ApoE null mice [2]; FIG. 4, listed as D-J peptide
  HDL protective capacity against LDL oxidation (LDL-induced monocyte chemotactic activity): as potent as D-4F
ApoE null mice [2]; FIG. 4, listed as DJ336
  HDL protective capacity against LDL oxidation (LDL-induced monocyte chemotactic activity): as potent as D4F
ApoE null mice [3]; FIG. 6
  causing HDL to inhibit oxidation of PAPC by HPODE (generation of monocyte chemotactic activity): as potent as D-4F
ApoE null mice [3]; FIG. 6, listed as DJ336
  causing HDL to inhibit oxidation of PAPC by HPODE (generation of monocyte chemotactic activity): as potent as D4F
ApoE null mice [4]; FIG. 5
  rendering LDL resistant to oxidation by human artery wall cells (induction of monocyte chemotactic activity): slightly more potent than D-4F
ApoE null mice [4]; FIG. 5, listed as DJ336
  rendering LDL resistant to oxidation by human artery wall cells (induction of monocyte chemotactic activity): slightly more potent than D4F
[5]
  potency in preventing LDL oxidation by artery wall cells in vitro, times more potent than D-4F: 10 to 25 times
[5]; listed as ApoJ variant peptide
  potency in preventing LDL oxidation by artery wall cells in vitro, times more potent than D-4F: 10-25 times
ApoE null mice [6]
  increasing plasma paraoxonase activity: at least as potent as D-4F
ApoE null mice [6]; listed as DJ336
  increasing plasma paraoxonase activity: at least as potent as D4F
LDL receptor null mice; FIG. 3
  HDL protective capacity against LDL-induced monocyte chemotactic activity: as active as 350 μg/ml of control human HDL
LDL receptor null mice; FIG. 3, listed as DJ335
  HDL protective capacity against LDL-induced monocyte chemotactic activity: essentially as effective as D4F
[7]
  in vitro concentration that prevents LDL-induced monocyte chemotactic activity by human artery wall cells, times less than the concentration required for D-4F: 10 to 25 times

## Ac-D-W-F-K-A-F-Y-D-K-V-A-E-K-F-K-E-A-F-NH2 (Ac-DWFKAFYDKVAEKFKEAF-NH2; also: D-amino acids, places not given here) [Peptide D-4F, apoA-I mimetic class A amphipathic helical peptide]
ApoE null mice [2]; FIG. 4
  HDL protective capacity against LDL oxidation (LDL-induced monocyte chemotactic activity): as active as 350 μg/ml of normal human HDL
Obese Zucker Rats [8]
  restenosis (intimal media ratio) after balloon injury of the common carotid artery: reduced
LDL receptor null mice; FIG. 3
  HDL protective capacity against LDL-induced monocyte chemotactic activity: as active as 350 μg/ml of control human HDL
ApoE null mice [9]
  biological activity: producing HDL and pre-beta HDL that inhibit LDL-induced monocyte chemotaxis: biologically active in mice; also recorded: very biologically active
ApoE null mice [10]
  trabecular bone mineral density: dramatically increased
Obese Zucker Rats [11]
  symptoms of diabetes (plasma glucose): effective in mitigating symptoms of diabetes
